Data from US7018396B2, “Method of treating acne” (New England Medical Center Hospitals, Inc., priority 2001, dated 2006).

Tested on: sebaceous glands present in skin of the hamster ear
Experiment: Hamster ear model: topical uptake of ICG into sebaceous glands (white light and fluorescence micrographs)
Assay type: in vivo
Conditions: 24 hours, 810 nm illumination, 840 nm bandpass filter
Procedure: A chromophore is considered “selectively introduced” to sebaceous glands according to the invention if greater than or equal to about 90% of the chromophore remaining associated with the skin after removal of excess chromophore preparation from the skin surface is observed in sebaceous glands. The proportion of a particular chromophore localized to sebaceous glands from a particular chromophore preparation (e.g., chromophore in oil or chromophore in liposomes or lipid suspension) is determined using an appropriate animal model, such as the hamster ear model described herein. Hamsters are known to have sebaceous glands in their ears. These glands are typically on the order of 200 μm in diameter, making them somewhat larger than typical sebaceous glands in humans. Nonetheless, the hamster ear is a convenient and instructive model for human skin and sebaceous glands.
For example, the non-lipophilic chromophore indocyanine green was introduced to sebaceous glands present in skin of the hamster ear according to the following method. The lipid chromophore suspension was topically applied to hamster ears and allowed to travel into the pores and sebaceous glands for 24 hours. After this time, the hamsters were euthanized and their ears were examined for evidence of ICG in the sebaceous glands. […] ICG fluorescence (840 nm) is stimulated by irradiation with 810 nm light. […]

CC1(C)C(/C=C/C=C/C=C/C=C2\N(CCCCS(=O)(=O)O)c3ccc4ccccc4c3C2(C)C)=[N+](CCCCS(=O)(=O)[O-])c2ccc3ccccc3c21 [indocyanine green]
localization of chromophore in skin: present in the sebaceous glands but not in the tissue between the glands
